Assay results published in patent US6821980B1, “Substituted 5-benzyl-2,4-diaminopyrimidines” (Basilea Pharmaceutica AG, priority 1999, dated 2004).
pIC50: −log10 of the molar value. Converted amounts (≈) assume the structure as drawn. Like-named read-outs stand apart in the source and are kept apart here.

What was measured:
[1] = molecular target: purified DHFR of strain 157/4696 of Staphylococcus aureus (Staphylococcus aureus, UniProt P13955); assay: biochemical
[2] = tested on: Streptococcus pneumoniae 1/1; assay: MIC against Streptococcus pneumoniae 1/1; assay type: cell-based; conditions: Streptococcus pneumoniae 1/1, trimethoprim- and penicillin-resistant, serotype 6, clinical isolate; for MIC: read-out: MIC Sp1/1
[3] = molecular target: T1, purified DHFR of strain Sp1/1 of Streptococcus pneumoniae (Streptococcus pneumoniae serotype 4, UniProt Q54801); assay type: biochemical; conditions: IC50 against purified DHFR of strain Sp1/1
T1 sequence (Q54801 1-168 I100L): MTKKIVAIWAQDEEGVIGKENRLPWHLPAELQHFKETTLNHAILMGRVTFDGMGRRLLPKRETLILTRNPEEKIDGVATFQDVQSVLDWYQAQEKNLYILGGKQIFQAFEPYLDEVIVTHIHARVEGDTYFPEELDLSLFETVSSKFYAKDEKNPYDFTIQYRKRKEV

[4] = tested on: Staphylococcus aureus 101; assay: MIC against Staphylococcus aureus 101; assay type: cell-based; conditions: Staphylococcus aureus 101, MRSA- and trimethoprim-resistant, clinical isolate; for MIC: read-out: MIC Sa101

Sequence of purified DHFR of strain 157/4696 of Staphylococcus aureus (P13955 whole entry): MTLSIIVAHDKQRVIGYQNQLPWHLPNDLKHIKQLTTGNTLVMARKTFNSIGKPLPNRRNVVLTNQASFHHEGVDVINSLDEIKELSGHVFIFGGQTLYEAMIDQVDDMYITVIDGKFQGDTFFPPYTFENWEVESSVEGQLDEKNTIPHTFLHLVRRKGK

CCOc1cc(Cc2cnc(N)nc2N)cc(OS(=O)(=O)C2CCC2)c1-c1ccc(N)c(C)c1 [Example 40c, Cyclobutane-sulphonic acid 4′-amino-4-(2,4-diamino-pyrimidin-5-ymethyl)-6-ethoxy-3′-methyl-biphenyl-2-yl ester]
pIC50 [1]: 7.43 | MIC ([2]; Table 1): 0.5 µg/mL (≈ 1.03 µM) | pIC50 ([3]; Table 1): 7.72 | MIC ([4]; Table 1): 1 µg/mL (≈ 2.07 µM)

CCOc1cc(Cc2cnc(N)nc2N)cc(OS(=O)(=O)C2CCOCC2)c1-c1ccc(N)c(C)c1 [Example 41-a, Tetrahydropyran-4-sulphonic acid 4′-amino-4-(2,4-diamino-pyrimidin-5-ylmethyl)-6-ethoxy-3′-methyl-biphenyl-2-yl ester]
pIC50 [1]: 7.26 | MIC ([2]; Table 2): 0.5 µg/mL (≈ 0.973 µM) | pIC50 ([3]; Table 2): 9.52 | MIC ([4]; Table 2): 2 µg/mL (≈ 3.89 µM)

CCOc1cc(Cc2cnc(N)nc2N)cc(OS(=O)(=O)C2CCOCC2)c1-c1ccc(N)c(F)c1 [Example 41-b, Tetrahydronyran-4-sulphonic acid 4′-amino-4-(2,4-diamino-pyrimidin-5-ylmethyl)-6-ethoxy-3′-fluoro-biphenyl-2-yl ester]
pIC50 [1]: 6.60 | MIC ([2]; Table 2): 0.5 µg/mL (≈ 0.966 µM) | pIC50 ([3]; Table 2): 8.21 | MIC ([4]; Table 2): 4 µg/mL (≈ 7.73 µM)

CCOc1cc(Cc2cnc(N)nc2N)cc(OS(=O)(=O)C2CCOCC2)c1-c1cccc(N)c1 [Example 41-c, Tetrahydropyran-4-sulphonic acid 3′-amino-4-(2,4-diamino-pyrimidin-5-ylmethyl)-6-ethoxy-biphenyl-2-yl ester]
pIC50 [1]: 7.37 | MIC ([2]; Table 2): 0.5 µg/mL (≈ 1 µM) | pIC50 ([3]; Table 2): 8.38 | MIC ([4]; Table 2): 4 µg/mL (≈ 8.01 µM)

CCOc1cc(Cc2cnc(N)nc2N)cc(OS(=O)(=O)CC2CCCO2)c1-c1cccc(N)c1 (stereo not shown) [Example 42-a, Tetrahydrofuran-2-yl-methanesulphonic acid 3′-amino-4-(2,4-diamino-pyrimidin-5-ylmethyl)-6-ethoxy-biphenyl-2-yl ester]
pIC50 [1]: 6.60 | MIC ([2]; Table 2): 2 µg/mL (≈ 4 µM) | pIC50 ([3]; Table 2): 8.24 | MIC ([4]; Table 2): 8 µg/mL (≈ 16 µM)

CCOc1cc(Cc2cnc(N)nc2N)cc(OS(=O)(=O)CC2CCCO2)c1-c1ccc(N)c(F)c1 (stereo not shown) [Example 42-b, Tetrahydrofuran-2-yl-methanesulphonic acid 4′-amino-4-(2,4-diamino-primidin-5-ylmethyl)-6-ethoxy-3′-fluoro-biphenAl-2-yl ester]
pIC50 [1]: 6.29 | MIC ([2]; Table 2): 2 µg/mL (≈ 3.86 µM) | pIC50 ([3]; Table 2): 8.12 | MIC ([4]; Table 2): 8 µg/mL (≈ 15.5 µM)

CCOc1cc(Cc2cnc(N)nc2N)cc(OS(=O)(=O)CC2CCCO2)c1-c1ccc(N)c(C)c1 (stereo not shown) [Example 42-c, Tetrahydrofuran-2-yl-methanesulphonic acid 4′-amino-4-(2,4-diamino-pyrimidin-5-ylmethyl)-6-ethoxy-3′-methyl-biphenyl-2-yl ester]
pIC50 [1]: 6.52 | MIC ([2]; Table 2): 1 µg/mL (≈ 1.95 µM) | pIC50 ([3]; Table 2): 8.20 | MIC ([4]; Table 2): 8 µg/mL (≈ 15.6 µM)

CCOc1cc(Cc2cnc(N)nc2N)cc(OS(=O)(=O)N(C)C)c1-c1ccc(SC)cc1 [Example 43-a, Dimethylsulphamic acid 4-(2,4-diamino-pyrimidin-5-ylmethyl)-6-ethoxy-4′-methylsulphanyl-biphenyl-2-yl ester]
pIC50 [1]: 6.49 | MIC ([2]; Table 2): 4 µg/mL (≈ 8.17 µM) | pIC50 ([3]; Table 2): 8.17 | MIC ([4]; Table 2): 2 µg/mL (≈ 4.08 µM)

CCOc1cc(Cc2cnc(N)nc2N)cc(OS(=O)(=O)N(C)C)c1-c1ccccc1 [Example 43-b, Dimethylsulphamic acid 4-(2,4-diamino-pyrimidin-5-ylmethyl)-6-ethoxy-biphenyl-2-yl ester]
pIC50 [1]: 6.59 | MIC ([2]; Table 2): 1 µg/mL (≈ 2.25 µM) | pIC50 ([3]; Table 2): 8.01 | MIC ([4]; Table 2): 1 µg/mL (≈ 2.25 µM)

CCOc1cc(Cc2cnc(N)nc2N)cc(OS(=O)(=O)N(C)C)c1-c1ccc(N)c(C#N)c1 [Example 43-c, Dimethylsulphamic acid 4′-amino-3′-cyano-4-(2,4-diamino-gvrimidin-5-ylmethyl)-6-ethoxy-biphenyl-2-yl ester]
pIC50 [1]: 6.80 | MIC ([2]; Table 2): 2 µg/mL (≈ 4.14 µM) | pIC50 ([3]; Table 2): 7.62 | MIC ([4]; Table 2): 2 µg/mL (≈ 4.14 µM)

CCOc1cc(Cc2cnc(N)nc2N)cc(OS(=O)(=O)N(C)C)c1-c1ccc2[nH]ccc2c1 [Example 43-d, Dimethylsulphamic acid 5-(2,4-diamino-pyrimidin-5-ylmethyl)-3-ethoxy-2-(1H-indol-5-yl)-phenyl ester]
pIC50 [1]: 6.74 | MIC ([2]; Table 2): 1 µg/mL (≈ 2.07 µM) | pIC50 ([3]; Table 2): 7.38 | MIC ([4]; Table 2): 1 µg/mL (≈ 2.07 µM)

CCOc1cc(Cc2cnc(N)nc2N)cc(OCC)c1-c1cccc(NS(C)(=O)=O)c1 [Example 44-, N-[4′-(2,4-Diamino-pyrimidin-5-ylmethyl)-2′,6′-diethoxy-biphenyl-3-yl]-methanesulphonamide]
pIC50 [1]: 6.17 | MIC ([2]; Table 2): 2 µg/mL (≈ 4.37 µM) | pIC50 ([3]; Table 2): 7.74 | MIC ([4]; Table 2): 8 µg/mL (≈ 17.5 µM)

CCOc1cc(Cc2cnc(N)nc2N)cc(OCC)c1-c1ccc(OS(C)(=O)=O)cc1 [Example 45-, Methanesulphonic acid 4′-(2,4-diamino-pyrimidin-5-ylmethyl)-2′,6′-diethoxy-biphenyl-4-yl ester]
pIC50 [1]: 5.62 | MIC ([2]; Table 2): 4 µg/mL (≈ 8.72 µM) | pIC50 ([3]; Table 2): 6.89 | MIC ([4]; Table 2): 8 µg/mL (≈ 17.4 µM)

CCOc1cc(Cc2cnc(N)nc2N)cc(OCC)c1-c1ccc(OCC(N)=O)cc1 [Example 46-, 2-[4′-(2,4-Diamino-pylimidin-5-ylmethyl)-2′,6′-diethoxy-biphenyl-4-yloxy]-acetamide]
pIC50 [1]: 6.12 | MIC ([2]; Table 2): 2 µg/mL (≈ 4.57 µM) | pIC50 ([3]; Table 2): 7.26 | MIC ([4]; Table 2): 8 µg/mL (≈ 18.3 µM)

CCOc1cc(Cc2cnc(N)nc2N)cc(OCC2(CCC#N)CC2)c1-c1ccc(O)cc1 [Example 47-, 3-{1-[4-(2,4-Diamino-pyrimidin-5-yjmethyl)-6-ethoxy-4′-hydroxy-biphenyl-2-loxymethyl]-cycloprropyl}-propionitrile]
pIC50 ([1]; Table 2, IC50 against purified DHFR of strain 157/4696 (highly trimethoprim-resistant; clinical isolate), read-out: DHFR Sa1): 5.92 | MIC Sp1/1 ([2]; Table 2): 2 µg/mL (≈ 4.35 µM) | pIC50 ([3]; Table 2): 8.00 | MIC Sa101 ([4]; Table 2): 8 µg/mL (≈ 17.4 µM)

CCOc1cc(Cc2cnc(N)nc2N)cc(OCC(C)(C)CCC#N)c1-c1ccc(O)cc1 [Example 48-, 5-[4-(2,4-Diamino-pyrimidin-5-ylmethyl) 6-ethoy-4′-hydro-biPhenyl-2-xyloxy]-4,4-dimethyl-pentanenitrile]
pIC50 [1]: 6.12 | MIC ([2]; Table 2): 2 µg/mL (≈ 4.33 µM) | pIC50 ([3]; Table 2): 7.52 | MIC ([4]; Table 2): 4 µg/mL (≈ 8.67 µM)

CCOc1cc(Cc2cnc(N)nc2N)cc(OCC)c1-c1ccc2c(c1)CCCN2 [Example 49-, 5-[3,5-Diethoxy-4-(1,2,3,4-tetrahydro-quinolin-6-yl)-benzyl]-pyrimidine-2,4-diamine]
pIC50 [1]: 6.09 | MIC ([2]; Table 2): 8 µg/mL (≈ 19.1 µM) | pIC50 ([3]; Table 2): 7.34 | MIC ([4]; Table 2): 4 µg/mL (≈ 9.53 µM)

CCOc1cc(Cc2cnc(N)nc2N)cc(OCC)c1-c1cccc(OCCOC)c1 [Example 50-, 5-[2,6-Diethoxy-3′-(2-methoxy-ethoxy)-biphenyl-4-ylmethyl]-pyrimidine-2,4-diamine]
pIC50 [1]: 5.00 | MIC ([2]; Table 2): 4 µg/mL (≈ 9.12 µM) | pIC50 ([3]; Table 2): 7.49 | MIC ([4]; Table 2): 8 µg/mL (≈ 18.2 µM)

CCCOc1cc(Cc2cnc(N)nc2N)cc(OCCC)c1-c1cccc(N)c1 [Example 51-, 5-(3′-Amino-2,6-di-n-propoxy-biphenyl-4-ylmethyl)-pyrimidine-2,4-diamine]
pIC50 [1]: 5.07 | MIC ([2]; Table 2): 2 µg/mL (≈ 4.91 µM) | pIC50 ([3]; Table 2): 7.37 | MIC ([4]; Table 2): 8 µg/mL (≈ 19.6 µM)

CCCOc1cc(Cc2cnc(N)nc2N)cc(OCCC)c1-c1cccc(O)c1 [Example 52-, 4′-(2,4-Diamino-pyrimidin-5-ylmethyl)-2′,6′-digropobiphenyl-3-ol]
pIC50 [1]: 5.24 | MIC ([2]; Table 2): 1 µg/mL (≈ 2.45 µM) | pIC50 ([3]; Table 2): 7.70 | MIC ([4]; Table 2): 8 µg/mL (≈ 19.6 µM)

CCCOc1cc(Cc2cnc(N)nc2N)cc(OCC)c1-c1cccc(O)c1 [Example 53-, 4′-(2,4-Diamino-pyrimidin-5-ylmethyl)-6′-ethoxy-2′-n-propoxy-biphenyl-3-ol]
pIC50 [1]: 5.74 | MIC ([2]; Table 2): 4 µg/mL (≈ 10.1 µM) | pIC50 ([3]; Table 2): 7.55 | MIC ([4]; Table 2): 8 µg/mL (≈ 20.3 µM)

CCOc1cc(Cc2cnc(N)nc2N)cc(OCC2CC2)c1-c1cccc(O)c1 [Example 54-, 2′-Cyclopropanomethoxy-4′-(2,4-diamino-pyrimidin-5-ylmethyl)-6′-ethoxy-biphenyl-3-ol]
pIC50 [1]: 5.51 | MIC ([2]; Table 2): 2 µg/mL (≈ 4.92 µM) | pIC50 ([3]; Table 2): 7.72 | MIC ([4]; Table 2): 8 µg/mL (≈ 19.7 µM)

CCOc1cc(Cc2cnc(N)nc2N)cc(OCC2CC2)c1-c1ccc(OCCO)cc1 [Example 55-, 2-[2′-Cyclopropylmethoxy-4′-(2,4-diamino-pyrimidin-5-ylmethyl)-6′-ethoxy-biphenyl-4-yloxy]-ethanol]
pIC50 [1]: 5.77 | MIC ([2]; Table 2): 4 µg/mL (≈ 8.88 µM) | pIC50 ([3]; Table 2): 7.32 | MIC ([4]; Table 2): 8 µg/mL (≈ 17.8 µM)

CCOc1cc(Cc2cnc(N)nc2N)cc(OCC2CC2)c1-c1ccc(OS(C)(=O)=O)cc1 [Example 57-, Methanesulphonic acid 2′-cylopropylmethoxy-4′-(2,4-diamino-pyrimidin-5-ylmethyl)-6′-ethoxy-biphenyl-4-yl ester]
pIC50 [1]: 5.44 | MIC ([2]; Table 2): 4 µg/mL (≈ 8.25 µM) | pIC50 ([3]; Table 2): 7.52 | MIC ([4]; Table 2): 8 µg/mL (≈ 16.5 µM)

CCOc1cc(Cc2cnc(N)nc2N)cc(OS(=O)(=O)C(C)C)c1-c1ccc(OC(C)=O)cc1 [Example 58-, 4′-(2,4-Diamino-pyrimidin-5-ylmethyl)-6′-ethoxy-2′-(propane-2-sulphonyloxy)-biphenyl-4-yl acetate]
pIC50 [1]: 7.26 | MIC ([2]; Table 2): 2 µg/mL | pIC50 ([3]; Table 2): 7.49 | MIC ([4]; Table 2): 2 µg/mL
